Reference: patent US7521563B2, “Hydroxamic acid derivative and medicine containing the same as active ingredient” (Shizuoka Coffein Co., Ltd., priority 2004, dated 2009)

Legend:
[1] = tested on: TNFα production; experiment: TNFα production suppression test in LPS-stimulated PMA-differentiated THP-1 cells (ELISA); assay type: cell-based, Human; conditions: for TNFα production suppression rate (%): THP-1 cells, LPS 1 μg/mL, 24 hours
Experimental: (§1) Tests were conducted with reference to the method by G. Lozanski et al. (J. Rheumatol., Vol. 19, 921-926, 1992).
(§2) Using a 10% fetal calf serum (FCS)-added PRMI-1640 medium, THP-1 cells (Dainippon Pharmaceutical Co., Ltd.) were prepared in an amount of 10^6/mL, and inoculated on a 48-well microplate in an amount of 500 μL per well. 10^−8 M of phorbol 12-myristate 13-acetate (PMA) was added to the wells, and the cells were cultured for 24 hours to induce differentiation of the cells to macrophages.
(§3) 50 μL of test substance diluting liquid or DMSO diluting liquid was added to the wells, and the cells were preincubated by a CO2 incubator at 37° C. for 30 minutes. 5 μL of LPS (111 μg/mL) (final concentration: 1 μg/mL) was added to each well. Furthermore, wells with no LPS added to the DMSO diluting liquid were set. After the cells were cultured for 24 hours, they were centrifuged to take cell supernatants, and the IL-6 level was measured using the Human IL-6 ELISA kit (Biosource International), and TNFα was measured using the Human tumor necrosis factor-α ELISA kit (Biosource International), by the enzyme-linked immunosorbent assay (ELISA).

[2] = tested on: IL-6 production; experiment: IL-6 production suppression test in LPS-stimulated PMA-differentiated THP-1 cells (ELISA); assay type: cell-based, Human; conditions: for IL-6 production suppression rate (%): THP-1 cells, LPS 1 μg/mL, 24 hours
Experimental: as §1, §2, §3

[3] = tested on: THP-1 cells; experiment: Evaluation of cytotoxicity by the MTT method; assay type: cell-based; conditions: DMSO well = 100%
Experimental: Cytotoxicity was evaluated by the MTT method.
Specifically, a 0.5 mg/mL solution of 3-(4,5-dimethyl-2-thiazolyl)-2,5-diphenyl-2H-tetrazolium bromide (MTT, Sigma) prepared in a 10% fetal calf serum (FCS)-added PRMI-1640 medium was added in an amount of 100 μL per well to cells with culture supernatants removed in test example 1, and the cells were cultured for 3 hours. The culture solution was removed by centrifugal separation, 100 μL of methanol was added to each well, and the absorbance was measured at a wavelength of 570 nm after cytolysis.
The absorbances for the well to which the DMSO diluting liquid was added and the well to which no LPS was added are 100% and 0%, respectively, the absorbances for wells of different doses of test substances are expressed as percentages, and the results are shown in Table 4.

[4] = range of concentrations 1×10^−5-−9 M
[5] = concentration 1 × 10^−9 M (first column)
[6] = concentration 1 × 10^−9 M (second column, as printed)
[7] = active concentration 1 × 10^−6 M
[8] = active concentration 1 × 10^−7 M

SMILES	TNFα production suppressing activity [1, 4]	IL-6 production suppressing activity [2, 4]	Cytotoxicity test: absorbance (570 nm, MTT) expressed as percentage ([3]; concentration 1 × 10^−5 M)	Cytotoxicity test: absorbance (570 nm, MTT) expressed as percentage ([3]; concentration 1 × 10^−6 M)	Cytotoxicity test: absorbance (570 nm, MTT) expressed as percentage ([3]; concentration 1 × 10^−7 M)	Cytotoxicity test: absorbance (570 nm, MTT) expressed as percentage [3, 5]	Cytotoxicity test: absorbance (570 nm, MTT) expressed as percentage [3, 6]	TNFα production suppression rate (%) [1, 7]	TNFα production suppression rate (%) [1, 8]	IL-6 production suppression rate (%) [2, 7]	IL-6 production suppression rate (%) [2, 8]
O=C(O)CCCCCc1nc(-c2ccccc2)c(-c2ccccc2)o1 [4,5-diphenyl-2-oxazolehexanoic acid, reference compound]	no activity	no activity									
O=C(CCCCCc1nc(-c2ccccc2)c(-c2ccc(F)cc2)s1)NO [Example 8, 5-(4-fluorophenyl)-N-hydroxy-4-phenyl-2-thiazolehexanamide]			88.9%	113.7%	106.7%	106.7%	105.3%	40%			
O=C(CCCCCc1ncc(-c2ccc(Br)cc2)s1)NO [Example 20, 5-(4-bromophenyl)-N-hydroxy-2-thiazolehexanamide]			82.3%	97.6%	102.0%	95.6%	104.0%		44%	64%	
O=C(CCCCCCc1nc(-c2ccccc2)c(-c2ccccc2)o1)NO [Example 24, N-hydroxy-4,5-diphenyl-2-oxazoleheptanamide]			83.8%	91.8%	88.1%	96.4%	83.9%				50%
O=C(CCCCCc1nc(-c2ccccc2)c(-c2ccccc2)o1)NO [Example 25, N-hydroxy-4,5-diphenyl-2-oxazolehexanamide]			78.9%	83.6%	87.6%	85.8%	91.9%				50%
